Experiment [1] relates to human recombinant prostanoid receptor (DP1, EP1-4, FP, IP and TP). In words: Prostanoid receptor blockade profile stated in words. The format is cell-based. As for the experimental part: (§1) The above compounds were tested for PG antagonist activity as follows using human recombinant prostanoid receptor (DP1, EP1-4, FP, IP and TP) stable cell lines:
(§2) In order to measure the response of Gs and Gi coupled prostanoid receptors as a Ca^2+ signal, chimeric G protein cDNAs were used. Stable cell lines over-expressing human prostanoid DP1, EP1-4, FP, IP, and TP receptors were established as described in U.S. Ser. No. 61/410,153.

Experiment [2] concerns the target T1, human prostanoid EP1 receptor (Homo sapiens, UniProt P34995).
T1 construct: expressed in transfected cells
T1 sequence (P34995 1-402): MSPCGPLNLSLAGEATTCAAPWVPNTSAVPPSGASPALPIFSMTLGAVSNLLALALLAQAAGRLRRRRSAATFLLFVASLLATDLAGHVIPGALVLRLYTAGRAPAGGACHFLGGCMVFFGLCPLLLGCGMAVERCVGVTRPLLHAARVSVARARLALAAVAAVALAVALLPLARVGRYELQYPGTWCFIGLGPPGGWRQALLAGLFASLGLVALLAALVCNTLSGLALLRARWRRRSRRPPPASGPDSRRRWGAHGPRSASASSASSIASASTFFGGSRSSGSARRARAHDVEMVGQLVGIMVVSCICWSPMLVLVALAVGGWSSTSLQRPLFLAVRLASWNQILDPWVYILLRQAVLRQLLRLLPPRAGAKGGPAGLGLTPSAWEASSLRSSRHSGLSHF
Briefly: PG antagonist activity, Ca2+ signal in human recombinant prostanoid receptor stable cell line. The format is cell-based. Conditions: parameter and unit not given. As for the experimental part:
as §1, §2

Experiment [3] has as its target T2, human prostanoid FP receptor (Homo sapiens, UniProt P43088).
T2 construct: expressed in transfected cells
The description is as above. To be noted: parameter and unit not given. The format is cell-based. On the procedure: as §1, §2

Experiment [4] addresses T3, human prostanoid TP receptor (Homo sapiens, UniProt P21731).
T3 construct: expressed in transfected cells
T3 sequence (P21731 1-343): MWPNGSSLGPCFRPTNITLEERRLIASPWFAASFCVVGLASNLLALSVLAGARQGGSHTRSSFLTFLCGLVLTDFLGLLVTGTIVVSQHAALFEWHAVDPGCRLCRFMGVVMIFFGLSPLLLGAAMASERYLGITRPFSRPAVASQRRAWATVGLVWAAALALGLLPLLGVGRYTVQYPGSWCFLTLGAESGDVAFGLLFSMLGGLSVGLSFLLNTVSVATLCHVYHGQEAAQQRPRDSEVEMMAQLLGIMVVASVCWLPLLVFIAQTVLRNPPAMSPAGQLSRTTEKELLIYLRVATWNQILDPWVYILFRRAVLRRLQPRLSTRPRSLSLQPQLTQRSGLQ
The experiment is described as above. The format is cell-based. Conditions: parameter and unit not given. As for the experimental part:
as §1, §2

Experiment [5] has as its target T4, human prostanoid EP3 receptor (Homo sapiens, UniProt P43115).
T4 construct: expressed in transfected cells
T4 sequence (P43115 1-390): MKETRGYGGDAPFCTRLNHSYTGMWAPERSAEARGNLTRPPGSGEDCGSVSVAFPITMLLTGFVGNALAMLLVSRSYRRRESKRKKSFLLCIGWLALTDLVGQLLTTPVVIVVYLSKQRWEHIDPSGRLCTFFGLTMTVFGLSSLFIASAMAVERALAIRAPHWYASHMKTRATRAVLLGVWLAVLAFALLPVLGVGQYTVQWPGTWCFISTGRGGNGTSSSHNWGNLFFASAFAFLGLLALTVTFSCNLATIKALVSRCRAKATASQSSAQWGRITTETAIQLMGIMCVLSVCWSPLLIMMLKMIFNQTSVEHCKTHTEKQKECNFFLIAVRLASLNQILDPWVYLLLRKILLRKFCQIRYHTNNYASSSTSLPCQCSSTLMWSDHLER
The experiment is described as above. The format is cell-based. Conditions: parameter and unit not given. As for the experimental part:
as §1, §2

Experiment [6] has as its target T5, human prostanoid EP4 receptor (Homo sapiens, UniProt P35408).
T5 construct: expressed in transfected cells
The description is as above. The format is cell-based. To be noted: parameter and unit not given. On the procedure: as §1, §2

Experiment [7] has as its target T6, human prostanoid DP1 receptor (Homo sapiens, UniProt Q13258).
T6 construct: expressed in transfected cells
T6 sequence (Q13258 1-359): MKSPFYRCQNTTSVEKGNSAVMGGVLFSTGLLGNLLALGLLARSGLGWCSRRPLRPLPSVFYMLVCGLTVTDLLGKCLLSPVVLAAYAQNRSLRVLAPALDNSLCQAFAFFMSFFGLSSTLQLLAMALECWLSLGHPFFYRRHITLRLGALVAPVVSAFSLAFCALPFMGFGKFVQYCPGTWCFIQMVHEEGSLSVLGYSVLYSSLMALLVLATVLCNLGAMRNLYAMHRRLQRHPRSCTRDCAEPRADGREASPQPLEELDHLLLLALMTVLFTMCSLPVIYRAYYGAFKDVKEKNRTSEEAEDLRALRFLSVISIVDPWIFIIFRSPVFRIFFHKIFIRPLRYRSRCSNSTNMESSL
Described as above. Conditions: parameter and unit not given. The format is cell-based. On the procedure:
as §1, §2

For experiment [8], the system named is laser-induced neovascularization (CNV). In words: Rat laser-induced neovascularization (CNV) model. The format is in vivo. Conditions: formulated in 70% PEG, FIG. 15, vs vehicle, EXAMPLE 8, SC-51322 and their combination. As for the experimental part: The compound of Example 1 was also evaluated for activity in an in-vivo Rat laser-induced neovascularization (CNV) model.
In this test, compounds were formulated in 70% polyethylene glycol (PEG). CNV is induced by laser burn.

For experiment [9], the system named is Experimental autoimmune uveoretinitis (EAU). In words: Rat Experimental Autoimmune Uveoretinitis (EAU) model. The format is in vivo. Conditions: FIG. 14.
Experiment [10] has as its target T7, human prostanoid EP2 receptor (Homo sapiens, UniProt P43116).
T7 construct: expressed in transfected cells
In words: PG antagonist activity, Ca2+ signal in human recombinant prostanoid receptor stable cell line. Conditions: parameter and unit not given. The format is cell-based. As for the experimental part:
as §1, §2

The target in experiment [11] is T8, human prostanoid IP receptor (Homo sapiens, UniProt P43119).
T8 construct: expressed in transfected cells
The experiment is described as above. The format is cell-based. To be noted: parameter and unit not given. On the procedure:
as §1, §2

For experiment [12], the system named is human recombinant prostanoid receptor (DP1, EP1-4, FP, IP and TP). To be noted: stated in words; IUPHAR database referred to; cited from earlier work.
Setting [13] is: rat EAU, vs all of the comparators.

T5 sequence (P35408 whole entry): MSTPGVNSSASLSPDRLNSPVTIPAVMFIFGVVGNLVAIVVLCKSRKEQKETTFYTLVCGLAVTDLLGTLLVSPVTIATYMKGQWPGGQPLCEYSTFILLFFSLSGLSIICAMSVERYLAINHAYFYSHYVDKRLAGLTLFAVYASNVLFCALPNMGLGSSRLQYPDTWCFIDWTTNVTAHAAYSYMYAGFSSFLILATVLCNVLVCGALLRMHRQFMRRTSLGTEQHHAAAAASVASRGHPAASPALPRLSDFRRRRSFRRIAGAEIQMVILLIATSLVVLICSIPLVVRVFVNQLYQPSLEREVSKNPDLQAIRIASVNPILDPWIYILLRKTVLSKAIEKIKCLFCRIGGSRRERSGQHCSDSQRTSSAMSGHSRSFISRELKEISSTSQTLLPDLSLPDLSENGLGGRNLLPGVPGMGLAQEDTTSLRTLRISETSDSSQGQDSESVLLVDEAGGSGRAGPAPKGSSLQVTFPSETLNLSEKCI
T2 sequence (P43088 whole entry): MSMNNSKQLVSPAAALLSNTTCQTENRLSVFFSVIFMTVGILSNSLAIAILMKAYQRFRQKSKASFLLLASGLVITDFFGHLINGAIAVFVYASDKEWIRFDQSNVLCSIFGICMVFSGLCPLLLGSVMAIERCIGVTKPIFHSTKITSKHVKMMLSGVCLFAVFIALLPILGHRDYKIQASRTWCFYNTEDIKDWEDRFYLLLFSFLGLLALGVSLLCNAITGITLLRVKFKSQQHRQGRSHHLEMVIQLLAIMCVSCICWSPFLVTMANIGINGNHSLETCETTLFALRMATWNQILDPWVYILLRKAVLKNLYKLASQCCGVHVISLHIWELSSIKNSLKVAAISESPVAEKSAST
T8 sequence (P43119 whole entry): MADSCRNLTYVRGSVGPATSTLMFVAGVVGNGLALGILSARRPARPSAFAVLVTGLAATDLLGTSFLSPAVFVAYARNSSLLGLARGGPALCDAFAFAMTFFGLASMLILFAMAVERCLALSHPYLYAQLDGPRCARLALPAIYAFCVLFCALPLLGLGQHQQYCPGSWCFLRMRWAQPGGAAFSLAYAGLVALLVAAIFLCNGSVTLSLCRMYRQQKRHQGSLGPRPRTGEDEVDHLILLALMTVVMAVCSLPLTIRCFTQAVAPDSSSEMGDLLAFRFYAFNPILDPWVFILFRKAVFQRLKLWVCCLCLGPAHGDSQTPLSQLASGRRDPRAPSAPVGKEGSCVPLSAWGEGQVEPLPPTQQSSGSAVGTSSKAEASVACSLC
T7 sequence (P43116 whole entry): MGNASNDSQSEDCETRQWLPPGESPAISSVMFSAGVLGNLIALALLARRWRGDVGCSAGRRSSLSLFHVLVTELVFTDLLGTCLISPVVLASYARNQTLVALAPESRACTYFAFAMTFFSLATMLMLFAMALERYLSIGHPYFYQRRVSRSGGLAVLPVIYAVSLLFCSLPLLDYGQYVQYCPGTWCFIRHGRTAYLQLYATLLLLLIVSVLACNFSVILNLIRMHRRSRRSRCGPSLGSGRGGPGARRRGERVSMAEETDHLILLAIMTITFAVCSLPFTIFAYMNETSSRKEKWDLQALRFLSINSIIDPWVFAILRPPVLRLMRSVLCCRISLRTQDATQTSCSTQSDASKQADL

Consider `O=C(O)CCc1ccc(F)cc1C[C@H]1[C@@H]2CCC(O2)[C@H]1c1nc(C(=O)NCCCCC2CCCCC2)co1` [EXAMPLE 8, 3-(2-{(1S,2R,3S)-3-[4-(4-Cyclohexyl-butylcarbamoyl)-oxazol-2-yl]-7-oxa-bicyclo[2.2.1]hept-2-ylmethyl}-4-fluoro-phenyl)-propionic acid], for which, in experiment [1], the “prostanoid receptor selectivity / blockade profile” value is “selective for DP1, EP4, FP and TP receptors”.

Regarding `O=C(O)/C=C/c1ccc(F)cc1C[C@@H]1C(c2nc(C(=O)NCCCCC3CCCCC3)co2)C2CC[C@H]1O2` (stereo partly drawn) [Example 1, (E)-3-(2R-{3R-[4-(4-Cyclohexyl-butylcarbamoyl)-oxazol-2-yl]-7-oxa-bicyclo[2.2.1]hept-2-ylmethyl}-4-fluoro-phenyl)-acrylic acid], the “EP1 (PG antagonist activity)” value in experiment [2] turned out to be 380. For the same molecule, the “FP (PG antagonist activity)” value in [3] stood at 59. Besides, in experiment [4], the “TP (PG antagonist activity)” value is listed as less than 1. Moreover, the “EP3 (PG antagonist activity)” value in experiment [5] is on record as 5500. Also, the “EP4 (PG antagonist activity)” value in experiment [6] is listed as 60. Besides, the “DP (PG antagonist activity)” value in experiment [7] is given as 71. For the same molecule, the “clinical score (angiostatic efficacy)” value in [8] is “better clinical score than any of the comparators except the combination”. Also, in [9] (rat EAU induced by M18 peptide, vs vehicle, EXAMPLE 8, SC-51322 and their combination), the clinical score result is on record as “better clinical score than any of the comparators except the combination”. Besides, in experiment [9] (setting [13]), the “amount of invasive cells in the aqueous humor” value is recorded as “lower amount” and the “amount of protein in the aqueous humor” value is on record as “lower amount”.

Turning to `CCCCCCCCNC(=O)c1coc(C2C3CCC(O3)C2Cc2cc(F)ccc2/C=C/C(=O)O)n1` (stereo not drawn) [Example 2], the “EP1 (PG antagonist activity)” value in [2] turned out to be 2000. Further, in [3], the “FP (PG antagonist activity)” value turned out to be 300. Besides, the “TP (PG antagonist activity)” value in [4] is less than 1. Also, the “EP4 (PG antagonist activity)” value in [6] turned out to be 120. Moreover, the “DP (PG antagonist activity)” value in [7] is 220.

For the molecule `CCCCCCCCCNC(=O)c1coc(C2C3CCC(O3)C2Cc2cc(F)ccc2/C=C/C(=O)O)n1` (stereo not drawn) [Example 3], the “EP1 (PG antagonist activity)” value in [2] is on record as 4100. Moreover, the “FP (PG antagonist activity)” value in experiment [3] came out at 230. Further, the “TP (PG antagonist activity)” value in experiment [4] is less than 1. Also, the “EP4 (PG antagonist activity)” value in [6] was found to be 180. In [7], the “DP (PG antagonist activity)” value stood at 270.

In the case of `CCCCCCCCCNC(=O)c1coc(C2C3CC[C@@H](O3)[C@@H]2Cc2cc(F)ccc2CCC(=O)O)n1` (stereo partly drawn) [Example 4, 3-{2R-[3R-(4-Nonylcarbamoyl-oxazol-2-yl)-7-oxa-bicyclo[2.2.1]hept-2-ylmethyl]-4-fluoro-phenyl}-propionic acid], in [2], the “EP1 (PG antagonist activity)” value is 660. In addition, in [10], the “EP2 (PG antagonist activity)” value was determined as 4300. Further, in [3], the “FP (PG antagonist activity)” value was determined as 12. The “TP (PG antagonist activity)” value in [4] is recorded as less than 1. Further, in experiment [11], the “IP (PG antagonist activity)” value turned out to be 1900. The “EP3 (PG antagonist activity)” value in experiment [5] worked out at 4100. Moreover, the “EP4 (PG antagonist activity)” value in experiment [6] is on record as 92. Further, the “DP (PG antagonist activity)” value in [7] came to 17.

As for `CCCCCCCCNC(=O)c1coc(C2C3CCC(O3)C2Cc2cc(F)ccc2CCC(=O)O)n1` (stereo not drawn) [Example 5], the “EP1 (PG antagonist activity)” value in [2] is on record as 1400. Further, in experiment [3], the “FP (PG antagonist activity)” value came out at 25. Further, in experiment [4], the “TP (PG antagonist activity)” value is reported as less than 1. The “IP (PG antagonist activity)” value in [11] stood at 2400. Further, the “EP3 (PG antagonist activity)” value in [5] amounted to 4700. Also, the “EP4 (PG antagonist activity)” value in experiment [6] stood at 160. The “DP (PG antagonist activity)” value in experiment [7] is reported as 55.

For `O=C(O)CCc1ccc(F)cc1CC1C2CCC(O2)C1c1nc(C(=O)NCCCCC2CCCCC2)co1` (stereo not drawn) [Example 6], the “EP1 (PG antagonist activity)” value in experiment [2] was found to be 1750. Also, in experiment [3], the “FP (PG antagonist activity)” value is 35. The “TP (PG antagonist activity)” value in experiment [4] is listed as less than 1. The “EP4 (PG antagonist activity)” value in [6] is on record as 170. In addition, the “DP (PG antagonist activity)” value in experiment [7] is 50.

For `O=C(CCSCc1ccco1)NNC(=O)N1Cc2ccccc2Oc2ccc(Cl)cc21` [SC-51322], the “prostanoid receptor blockade profile of comparator” value in experiment [12] was “blocks the EP1 receptor, only”.

(Values after patent US8901159B2, “Inhibition of inflammation by simultaneous blockade of multiple prostanoid receptors” (Allergan, Inc., priority 2010, dated 2014).)
